Test results as given in patent US11197933B2, “Polysubunit opioid prodrugs resistant to overdose and abuse” (Elysium Therapeutics, Inc., priority 2017, dated 2021).

Key:
trypsin [1] = target: T1, trypsin (Bos taurus, UniProt P00760); assay: Inhibition of trypsin-catalyzed hydrolysis of BANA (percent BANA remaining vs. time); type: biochemical; conditions: pH 7.4, 37° C.; for Ability to inhibit trypsin (result in words): increasing concentrations, BANA substrate
T1 construct: gene PRSS1
T1 sequence (P00760 24-246): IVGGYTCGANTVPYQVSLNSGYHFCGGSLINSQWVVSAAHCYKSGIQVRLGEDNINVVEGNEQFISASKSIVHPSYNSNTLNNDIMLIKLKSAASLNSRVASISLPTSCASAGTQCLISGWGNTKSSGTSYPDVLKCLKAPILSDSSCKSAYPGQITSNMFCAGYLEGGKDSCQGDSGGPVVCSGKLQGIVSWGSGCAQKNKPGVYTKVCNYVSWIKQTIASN
Protocol: This example describes in vitro experiments with a compound of the disclosure to provide a mechanism of overdose protection.
The effect of increasing concentrations of compounds II-D-11, II-D-23, II-D-71c and II-D-71b on the rate and extent of the trypsin-catalyzed hydrolysis of a commercially available trypsin substrate Nα-Benzoyl-L-arginine 4-nitroanilide hydrochloride (BANA) was evaluated in the presence of trypsin (2,000 BAEE activity) in a pH 7.4 phosphate buffer at 37° C. in vitro. Both buffer solution alone (i.e. no trypsin) and trypsin containing buffer solution (i.e. no test compounds) controls were run contemporaneously.

[2] = Hydrocodone and naltrexone release from II-D-71c-NTX in 0.5M aqueous NaOH at 60° C. (tampering); type: physicochemical; conditions: for Percent HC Released / Percent NTX Released: 60° C. incubation in 0.5M aqueous NaOH
Protocol: H-D-71c-NTX was incubated in a strongly basic solution of 0.5M aqueous sodium hydroxide at 60° C. for 300 minutes. The solution was analyzed for the presence of both hydrocodone and naltrexone at specified time points using LC/MS analysis. […] The data from this study is presented graphically in FIG. 2.

[3] = Rate of release of opioid agonist (key differentiating attributes, Table 5); conditions: for Rate of Release of Opioid Against: in words (Fast/Slow); for half-life: read-out: Rate of Release of Opioid Against: T1/2
Description: (§1) As mentioned previously, a wide range of targeted oral pharmacokinetic profiles can be achieved by administering pharmaceutical compositions containing specific combinations of different polysubunit molecules to subjects. For example, the different polysubunit molecules contained in the composition may differ with regard to (i) the specific opioid agonists delivered, (ii) the rates at which the opioid agonist is delivered in vivo (i.e. to modify the oral pharmacokinetic profile of the delivered opioid), and (iii) the combined inhibitory potency of the GI enzyme inhibiting subunits [i.e. to modify the overdose protection profile and/or the prescribed dose strengths of the delivered opioid agonist(s)]. Table 5 below provides non-limiting examples of compounds of the invention with their key differentiating attributes. Table 6 discusses scenarios and rationales for using the compounds presented in Table 5 in combination with each other, in useful pharmaceutical formulations of the invention.

trypsin [4] = target: T1, trypsin; assay: Trypsin inhibitory potency (key differentiating attributes, Table 5); type: biochemical
Description: as §1

Q: With `COc1ccc2c3c1OC1C(OC(=O)N4CCC(C(=O)NCCCCC(NC(C)=O)C(=O)NCCOc5ccc(C(=O)Oc6ccc7cc(C(=N)N)ccc7c6)cc5)CC4CNC(=O)C(CCCNC(=N)N)NC(=O)CNC(C)=O)=CCC4C(C2)N(C)CCC314` [II-D-11] as the compound, how does the “Percent BANA remaining” value (trypsin [1]; 1 uM compound, 2 minutes) read?
A: 100%

Q: What about the “Percent BANA remaining” value (trypsin [1]; 1 uM compound, 13 minutes) of the same compound?
A: 39%

Q: What about the “Percent BANA remaining” value (trypsin [1]; 1 uM compound, 24 minutes) of the same compound?
A: 0%

Q: And the “Percent BANA remaining” value (trypsin [1]; 1 uM compound, 80 minutes)?
A: 0%

Q: And the “Percent BANA remaining” value (trypsin [1]; 1 uM compound, 102 minutes)?
A: 0%

Q: And the “Percent BANA remaining” value (trypsin [1]; 1 uM compound, 119 minutes)?
A: 0%

Q: And the “Percent BANA remaining” value (trypsin [1]; 1 uM compound, 234 minutes)?
A: 0%

Q: What about the “Percent BANA remaining” value (trypsin [1]; 10 uM compound, 2 minutes) of the same compound?
A: 100%

Q: What about the “Percent BANA remaining” value (trypsin [1]; 10 uM compound, 13 minutes) of the same compound?
A: 98%

Q: And the “Percent BANA remaining” value (trypsin [1]; 10 uM compound, 24 minutes)?
A: 96%

Q: And the “Percent BANA remaining” value (trypsin [1]; 10 uM compound, 80 minutes)?
A: 94%

Q: What about the “Percent BANA remaining” value (trypsin [1]; 10 uM compound, 102 minutes) of the same compound?
A: 93%

Q: What about the “Percent BANA remaining” value (trypsin [1]; 10 uM compound, 119 minutes) of the same compound?
A: 94%

Q: What about the “Percent BANA remaining” value (trypsin [1]; 10 uM compound, 234 minutes) of the same compound?
A: 87%

Q: And the “Percent BANA remaining” value (trypsin [1]; 100 uM compound, 2 minutes)?
A: 100%

Q: What about the “Percent BANA remaining” value (trypsin [1]; 100 uM compound, 13 minutes) of the same compound?
A: 98%

Q: What about the “Percent BANA remaining” value (trypsin [1]; 100 uM compound, 24 minutes) of the same compound?
A: 100%

Q: And the “Percent BANA remaining” value (trypsin [1]; 100 uM compound, 80 minutes)?
A: 99%

Q: And the “Percent BANA remaining” value (trypsin [1]; 100 uM compound, 102 minutes)?
A: 99%

Q: And the “Percent BANA remaining” value (trypsin [1]; 100 uM compound, 119 minutes)?
A: 99%

Q: And the “Percent BANA remaining” value (trypsin [1]; 100 uM compound, 234 minutes)?
A: 99%

Q: And the “Percent BANA remaining” value (trypsin [1]; 1 mM compound, 2 minutes)?
A: 100%

Q: What about the “Percent BANA remaining” value (trypsin [1]; 1 mM compound, 13 minutes) of the same compound?
A: 100%

Q: And the “Percent BANA remaining” value (trypsin [1]; 1 mM compound, 24 minutes)?
A: 99%

Q: What about the “Percent BANA remaining” value (trypsin [1]; 1 mM compound, 80 minutes) of the same compound?
A: 100%

Q: And the “Percent BANA remaining” value (trypsin [1]; 1 mM compound, 102 minutes)?
A: 100%

Q: What about the “Percent BANA remaining” value (trypsin [1]; 1 mM compound, 119 minutes) of the same compound?
A: 100%

Q: What about the “Percent BANA remaining” value (trypsin [1]; 1 mM compound, 234 minutes) of the same compound?
A: 100%

Q: And the “Ability to inhibit trypsin (result in words)” value (trypsin [1])?
A: progressively inhibit trypsin in a concentration dependent manner

Q: What does the source list for `COc1ccc2c3c1OC1C(OC(=O)N4CCC(C(=O)NCCCCC(NC(=O)OCc5ccccc5)C(=O)NCCOc5ccc(C(=O)Oc6ccc7cc(C(=N)N)ccc7c6)cc5)CC4CNC(=O)C(CCCNC(=N)N)NC(=O)CNC(C)=O)=CCC4C(C2)N(C)CCC314` [II-D-23]?
A: Percent BANA remaining (trypsin [1]; 1 uM compound, 2 minutes): 100%; Percent BANA remaining (trypsin [1]; 1 uM compound, 14 minutes): 20%; Percent BANA remaining (trypsin [1]; 1 uM compound, 24 minutes): 11%; Percent BANA remaining (trypsin [1]; 1 uM compound, 32 minutes): 0%; Percent BANA remaining (trypsin [1]; 1 uM compound, 70 minutes): 0%; Percent BANA remaining (trypsin [1]; 1 uM compound, 100 minutes): 0%; Percent BANA remaining (trypsin [1]; 1 uM compound, 145 minutes): 0%; Percent BANA remaining (trypsin [1]; 1 uM compound, 156 minutes): 0%; Percent BANA remaining (trypsin [1]; 1 uM compound, 247 minutes): 0%; Percent BANA remaining (trypsin [1]; 10 uM compound, 2 minutes): 100%; Percent BANA remaining (trypsin [1]; 10 uM compound, 14 minutes): 98%; Percent BANA remaining (trypsin [1]; 10 uM compound, 24 minutes): 96%; Percent BANA remaining (trypsin [1]; 10 uM compound, 32 minutes): 98%; Percent BANA remaining (trypsin [1]; 10 uM compound, 70 minutes): 97%; Percent BANA remaining (trypsin [1]; 10 uM compound, 100 minutes): 95%; Percent BANA remaining (trypsin [1]; 10 uM compound, 145 minutes): 96%; Percent BANA remaining (trypsin [1]; 10 uM compound, 156 minutes): 96%; Percent BANA remaining (trypsin [1]; 10 uM compound, 247 minutes): 93%; Percent BANA remaining (trypsin [1]; 100 uM compound, 2 minutes): 100%; Percent BANA remaining (trypsin [1]; 100 uM compound, 14 minutes): 99%; Percent BANA remaining (trypsin [1]; 100 uM compound, 24 minutes): 100%; Percent BANA remaining (trypsin [1]; 100 uM compound, 32 minutes): 100%; Percent BANA remaining (trypsin [1]; 100 uM compound, 70 minutes): 100%; Percent BANA remaining (trypsin [1]; 100 uM compound, 100 minutes): 100%; Percent BANA remaining (trypsin [1]; 100 uM compound, 145 minutes): 100%; Percent BANA remaining (trypsin [1]; 100 uM compound, 156 minutes): 100%; Percent BANA remaining (trypsin [1]; 100 uM compound, 247 minutes): 100%; Percent BANA remaining (trypsin [1]; 1 mM compound, 2 minutes): 100%; Percent BANA remaining (trypsin [1]; 1 mM compound, 14 minutes): 99%; Percent BANA remaining (trypsin [1]; 1 mM compound, 24 minutes): 98%; Percent BANA remaining (trypsin [1]; 1 mM compound, 32 minutes): 99%; Percent BANA remaining (trypsin [1]; 1 mM compound, 70 minutes): 99%; Percent BANA remaining (trypsin [1]; 1 mM compound, 100 minutes): 98%; Percent BANA remaining (trypsin [1]; 1 mM compound, 145 minutes): 98%; Percent BANA remaining (trypsin [1]; 1 mM compound, 156 minutes): 97%; Percent BANA remaining (trypsin [1]; 1 mM compound, 247 minutes): 96%; Ability to inhibit trypsin (result in words) (trypsin [1]): progressively inhibit trypsin in a concentration dependent manner

Q: What does the source list for `COc1ccc2c3c1O[C@H]1C(OC(=O)N4CCC(C(=O)NCCCC[C@H](NC(=O)CCCN(C)C(=O)Oc5ccc6c7c5O[C@H]5C(=O)CC[C@@]8(O)[C@@H](C6)N(CC6CC6)CC[C@]758)C(=O)NCCNC(=O)Cc5ccc(OC(=O)c6ccc(NC(=N)N)cc6)cc5)CC4CNC(=O)[C@@H](CCCNC(=N)N)NC(=O)CNC(C)=O)=CC[C@H]4[C@@H](C2)N(C)CC[C@]314.O=C(O)C(F)(F)F.O=C(O)C(F)(F)F.O=C(O)C(F)(F)F.O=C(O)C(F)(F)F` (stereo partly drawn) [II-D-71c-NTX]?
A: Release of hydrocodone and naltrexone on tampering (result in words) ([2]; 0.5M aqueous sodium hydroxide, 60° C., 300 minutes, LC/MS): release of the opioid agonist (e.g. hydrocodone) occurs concomitantly with the release of the opioid antagonist; Percent HC Released ([2]; time 0 (minutes)): 0%; Percent NTX Released ([2]; time 0 (minutes)): 0%; Percent HC Released ([2]; time 5 (minutes)): 2.52%; Percent NTX Released ([2]; time 5 (minutes)): 1.44%; Percent HC Released ([2]; time 10 (minutes)): 4.45%; Percent NTX Released ([2]; time 10 (minutes)): 2.0%; Percent HC Released ([2]; time 15 (minutes)): 6.27%; Percent NTX Released ([2]; time 15 (minutes)): 2.95%; Percent HC Released ([2]; time 20 (minutes)): 9.27%; Percent NTX Released ([2]; time 20 (minutes)): 3.69%; Percent HC Released ([2]; time 30 (minutes)): 13.99%; Percent NTX Released ([2]; time 30 (minutes)): 6.47%; Percent HC Released ([2]; time 60 (minutes)): 25.32%; Percent NTX Released ([2]; time 60 (minutes)): 14.41%; Percent HC Released ([2]; time 120 (minutes)): 37.9%; Percent NTX Released ([2]; time 120 (minutes)): 37.81%; Percent HC Released ([2]; time 300 (minutes)): 56.1%; Percent NTX Released ([2]; time 300 (minutes)): 60.25%

Q: With `COc1ccc2c3c1OC1C(OC(=O)N(C)C(CNC(=O)[C@H](CCCNC(=N)N)NC(=O)CNC(C)=O)C(=O)NCCCC[C@H](NC(=O)OCc4ccccc4)C(=O)NCCOc4ccc(C(=O)Oc5cccc(NC(=N)N)c5)cc4)=CC[C@H]4[C@@H](C2)N(C)CC[C@]314` (stereo partly shown) [II-J-71b] as the compound, how does the “Rate of Release of Opioid Against” value [3] read?
A: Slow

Q: And the half-life [3]?
A: ~3 h

Q: What about the “Trypsin Inhibitory Potency” value (trypsin [4]) of the same compound?
A: Low

Q: Which “Rate of Release of Opioid Against” value [3] does the source give for `COc1ccc2c3c1OC1C(OC(=O)N(C)C(CNC(=O)[C@H](CCCNC(=N)N)NC(=O)CNC(C)=O)C(=O)NCCCC[C@H](NC(=O)OCc4ccccc4)C(=O)NCCOc4ccc(C(=O)Oc5ccc(NC(=N)N)cc5)cc4)=CC[C@H]4[C@@H](C2)N(C)CC[C@]314` (stereo partly shown) [II-J-71c] here?
A: Slow

Q: And the half-life [3]?
A: ~3 h

Q: And the “Trypsin Inhibitory Potency” value (trypsin [4])?
A: High
